For orientation: ED50 means the dose at which the effect has come halfway, by size or by number of responders. For orientation: LD50 means the dose expected to kill half of the subjects tested. A higher LD50 goes with a less toxic substance. The term inhibition denotes the drop in the measured response relative to a control, in per cent. A word on the EC50: it is the concentration needed to bring the measured effect to its halfway point.

SMILES strings stand for the structures. Where two headings read alike, the source gives them in different places.

Series [1] has as its system gastric acid secretion induced by pentagastrin. As to the kind of experiment: Anti-secretive activity, gastric acid secretion stimulated with pentagastrin (Lai method, modified). The format is in vivo. Particulars: Rattus norvegicus, iv, 1 h; I.V.; rats; pentagastrin 30 mcg/kg/h; read-out: ED50, antagonistic activity towards secretion induced by pentagastrin. How it is done:
(§1) The anti-secretive activities were determined in rats with the use of male animals weighing approximately 200 g, anaesthetised with urethane. Gastric secretion was stimulated with pentagastrin, histamine or cabachol.
(§2) After tracheotomy, cannulae were inserted in the aesophagus and the duodenum. These were perfused with a tepid solution (37° C.) which was passed through the stomach at a constant flow rate of 1 ml/minute by means of a peristaltic pump. After stabilisation for 20 minutes, the stimulant, dissolved in a physiological solution, was perfused for 120 minutes at the dose indicated in Table 1 in a volume of 0.95 ml/hour. After 60 minutes of perfusion (base stimulation) the product under test was administered intravenously (I.V.) in a bolus and the perfusion of the stimulant was continued for a further 60 minutes. The acid secretion was recorded continuously as a function of time.
(§3) The activity of the product was evaluated as a percentage reduction in the acid secreted after the administration of the product against the base acidity measured in the first 60 minutes of collection which was in the presence of the stimulant alone.

For series [2], the system named is gastric acid secretion induced by histamine. Briefly: Anti-secretive activity, gastric acid secretion stimulated with histamine (Lai method, modified). Conditions: Rattus norvegicus, iv, 1 h; I.V.; rats; histamine 2.3 mg/kg/h; read-out: ED50, antagonistic activity towards secretion induced by histamine. The format is in vivo. How it is done: as §1, §2, §3
The test system of series [3] is gastric acid secretion induced by carbachol. Briefly: Anti-secretive activity, gastric acid secretion stimulated with carbachol (Lai method, modified). The format is in vivo. Particulars: Rattus norvegicus, iv, 1 h; I.V.; rats; carbachol 30 mcg/kg/h; read-out: ED50, antagonistic activity towards secretion induced by carbachol. How it is done:
as §1, §2, §3

A short description of series [4]: Toxicity (LD50 IV in mice). Conditions: mouse, in vivo.
A further series deals with ulcer caused by ethanol. As to the kind of experiment: Cytoprotective activity, ulcer caused by ethanol. The format is in vivo, rat. Particulars: for ED50: Rattus norvegicus, iv, 1 h, read-out: ED50, cytoprotective activity, ulcer caused by ethanol; for protective activity (in words): ulcer models of Table 2 (ethanol, 25% NaCl, stress). How it is done: (§4) The drugs under test were administered intravenously 15 minutes before the irritant. […] It consists of the assignment of arbitrary points according to the number and gravity of the lesions in accordance with the following criterion:
(§5) 1 if the length of the necrotic area is 2 mm
(§6) 2 if the length of the necrotic area is between 2 and 4 mm
(§7) 3 if the length of the necrotic area is 4 mm
(§8) 5 if the length of the area is 4 mm with a perforated ulcer.
(§9) A lesion index is then obtained by adding the number of lesions multiplied by their respective points.

In the next series the test system is ulcer caused by 25% NaCl. As to the kind of experiment: Cytoprotective activity, ulcer caused by 25% NaCl. In kind it is in vivo. Conditions: Rattus norvegicus, iv, 1 h, read-out: ED50, cytoprotective activity, ulcer caused by 25% NaCl. How it is done:
as §4, §5, §6, §7, §8, §9

For a further series, the system named is ulcer caused by stress. As to the kind of experiment: Cytoprotective activity, ulcer caused by stress (containment). Particulars: Rattus norvegicus, im, 5 h, read-out: ED50, cytoprotective activity, ulcer caused by stress. The format is in vivo. How it is done:
as §5, §6, §7, §8, §9
Male rats weighing approximately 150 g which had been starved for 24 hours were imprisoned in individual cylindrical cages and immersed up to the xiphoid process in cool water kept thermostatically at 19° C. The compounds were administrated intramuscularly (I.M.) 15 minutes before the start of the test.
5 hours after the start of their containment, the animals were killed, their stomachs were removed and a quantitative evaluation was then carried out as described above.

Series [5] deals with passive cutaneous anaphylaxis reaction. Briefly: Passive cutaneous anaphylaxis (PCA) in rats, modified Goose and Blair method. In kind it is in vivo, rat. Particulars: for ED50: Rattus norvegicus, iv, 0.5 h, I.V., rats. How it is done:
Male rats weighing approximately 400 g were treated with 10 mg/kg of grade V egg albumen dissolved in 1 ml of a physiological solution by I.M. and intraperitoneal (I.P.) routes. With one mg of Freund's complete adjuvent solution. 13 days after sensitisation, the animals were killed under […] anaesthesia, the blood was taken and the serum was kept at -70° C. after its titre of IgE specific to egg albumen had been assayed. On the basis of type, 2 intradermal injections (i.d.) of 0.1 ml of the antiserum, titrated and suitably diluted were given into the shaved backs of 200 g male rats at a time -24h.
The products under test were administered I.V. 20 minutes of the antigen. The animals were killed 30 minutes after the challenge, the skin of the back was turned inside out and the larger and smaller diameters of each blemish were measured. In practice the response of each animal was evaluated as the average of four diameters.

Series [6] relates to actively-sensitised guinea-pig lung fragments (histamine release). Briefly: Anaphylaxis in vitro, histamine release from actively sensitised guinea-pig lung fragments (modified Broklehurst method). In kind it is cell-based. Particulars: for inhibition at 10 µg/mL / inhibition at 30 µg/mL / inhibition at 100 µg/mL / inhibition at 300 µg/mL / EC50: Cavia porcellus; for inhibition at 10 µg/mL: 10 mcg/ml; for inhibition at 10 µg/mL / inhibition at 30 µg/mL / inhibition at 100 µg/mL / inhibition at 300 µg/mL: read-out: % inhibition of anaphylactic histamine release; for inhibition at 30 µg/mL: 30 mcg/ml; for inhibition at 100 µg/mL: 100 mcg/ml; for inhibition at 300 µg/mL: 300 mcg/ml; for EC50: guinea-pig lung fragments in vitro, read-out: EC50, anaphylactic histamine release; for activity in the in vitro anaphylaxis model relative to DSCG: compared with DSCG. How it is done: Male guinea pigs weighing approximately 250 g were sensitised with […] of grade V egg albumen dissolved in 1 ml of physiological solution and administered (1 ml/kg) I.P. and subcutaneously (S.C.). After three weeks the animals were killed under ethereal anaesthesia by bleeding. The lungs were removed and immersed in Tyrode solution at 4° C. Homogeneous fragments approximately 2 mm long were cut and divided into test pieces containing approximately 400 mg of tissue and […] of Tyrode. The samples were preincubated at 37° C. for 15 minutes with the compounds under test dissolved in 0.1 of Tyrode and incubated for a further 20 minutes at 37° C. The reaction was stopped by cooling in ice.
0.8 ml of the supernatant liquid were treated with perchloric acid and centrifuged to remove the proteins. The supernatant liquid was then made alkaline with 5N NaOH, the histamine was extracted with n-butanol and, after suitable dilution with n-heptane, was extracted again in dilute HCl.
O-phthalaldehyde was added to the samples and their fluorescence was measured with a fluorimeter at 450 mu after activation at 360 mu.
The histamine concentration in the samples was obtained from a standard straight-line graph in the range 50-800 ng/ml of histamine.

Setting [7] is: I.V., rats, 15 minutes before ethanol.
[8] abbreviates: I.V., rats, 15 minutes before NaCl.
The mark [9] stands for this setting: I.M., rats, 15 minutes before the test.

In the case of `N#Cc1ccc(C(=O)Nc2cc(C(=O)O)cc(C(=O)O)c2)cc1` [Compound 1, N-(3,5-dicarboxy)phenyl-4-cyanobenzamide], the ED50 is 50 mg/kg in series [1]; 47 mg/kg in series [2]; 33 mg/kg in series [3]; 45 mg/kg in the series with ulcer caused by ethanol (setting [7]); 42 mg/kg in the series on ulcer caused by 25% NaCl (setting [8]); 135 mg/kg with ulcer caused by stress (setting [9]). The compound also gave an ED50 in series [5] of 128 mg/kg. Moreover, the LD50 in series [4] (IV in mice) turned out to be 2400 mg/kg. In addition, in series [4] (LD50 IV mice versus ED50 of pentagastrin, read-out: toxic dose relative to the antacid-secretion dose), the selectivity ratio was roughly 50. The entries for the “% inhibition of passive cutaneous anaphylaxis” value (“% inhibition” for short) in [5] (50 mg/kg I.V.), in [5] (100 mg/kg I.V.) and in [5] (150 mg/kg I.V.) were 20.0%, 37.2% and 58.2%, respectively.

In the case of `O=C(O)c1cc(NC(=O)c2ccc(-c3nn[nH]n3)cc2)cc(C(=O)O)c1` [Compound 11, N-(3,5-dicarboxy)phenyl-4-(5-tetrazolyl)-benzamide], the 50% effective dose (ED50) amounted to 33 mg/kg in series [1]; 41 mg/kg in [2]; 50 mg/kg in [3]; 7 mg/kg in the series on ulcer caused by ethanol (setting [7]); 29 mg/kg with ulcer caused by 25% NaCl (setting [8]); 65 mg/kg in the series with ulcer caused by stress (setting [9]). This compound displayed an ED50 in series [5] of 42.6 mg/kg. Also, the “% inhibition” value in [5] (50 mg/kg I.V.) turned out to be 53.3%; in series [5] (100 mg/kg I.V.), 66%; in series [5] (150 mg/kg I.V.), 74.7%. For the same compound, the inhibition at 10 µg/mL in [6] was 11.8%. Moreover, the inhibition at 30 µg/mL in [6] was found to be 27.2%. For the same compound, the inhibition at 100 µg/mL in [6] came out at 42.4%. For the same compound, the inhibition at 300 µg/mL in series [6] was determined as 53.3%. In addition, the EC50 in series [6] came out at 216 µg/mL. Also, the “activity in the in vitro anaphylaxis model relative to DSCG” value in [6] is on record as 10-15 times.

As to `O=C(Nc1ccc(-c2nn[nH]n2)cc1)c1ccc(-c2nn[nH]n2)cc1` [Compound 12, N-°4-(5-tetrazolyl)phenyl-4-(5-tetrazolyl)-benzamide], the ED50 in [1] stood at 26 mg/kg; in [2], 32 mg/kg; in [3], 30 mg/kg; with ulcer caused by ethanol, 3 mg/kg; with ulcer caused by 25% NaCl it was 12 mg/kg; in the series with ulcer caused by stress it was 56 mg/kg. In series [5], this compound had an ED50 of 30.9 mg/kg. The “% inhibition” value in [5] (10 mg/kg I.V.) is on record as 39.0%; in series [5] (30 mg/kg I.V.) it was 45.3%; in series [5] (100 mg/kg I.V.) it was 67.6%. The inhibition at 10 µg/mL in [6] was 22.8%. Also, in series [6], the inhibition at 30 µg/mL is 28.4%. Also, the inhibition at 100 µg/mL in series [6] was 56.2%. Moreover, the inhibition at 300 µg/mL in series [6] came to 65.4%. The concentration giving a half-maximal response (EC50) in series [6] worked out at 93 µg/mL. Also, the “activity in the in vitro anaphylaxis model relative to DSCG” value in [6] is on record as 10-15 times.

With `CN1CCN(CC(=O)N2c3ccccc3C(=O)Nc3cccnc32)CC1` [PIRENZEPINE, pirenzepine, reference compound], the ED50 in the series on ulcer caused by ethanol (setting [7]) was greater than 50 mg/kg; in the series on ulcer caused by 25% NaCl (setting [8]), greater than 50 mg/kg; with ulcer caused by stress (setting [9]), greater than 75 mg/kg. For the same compound, in the series on ulcer caused by ethanol, the “protective activity (in words)” value is “inactive”.

Turning to `CN/C(=N/CCSCc1nc[nH]c1C)NC#N` [[…], cimetidine, reference compound], the median effective dose (ED50) is greater than 50 mg/kg with ulcer caused by ethanol, greater than 50 mg/kg with ulcer caused by 25% NaCl and greater than 75 mg/kg in the series with ulcer caused by stress. The “protective activity (in words)” value with ulcer caused by ethanol is “inactive”.

These data come from patent publication US5232937A, “Derivatives of N-phenylbenzamide with anti-ulcer and anti-allergy” (Rotta Research Laboratorium SpA., priority 1989, dated 1993).
